Laboratory results published in US7786108B2, “Compounds and method for treating dyslipidemia” (Eli Lilly and Company, priority 2004, dated 2010).
Structures can show the parent of a compound that is named as a salt.

The compounds below were run on transgenic mice that express both human CETP and human apolipoprotein A-1 (assay: In vivo assay of plasma lipids: elevation of HDL cholesterol). Conditions: Mus musculus; single oral dose 30 mg/kg; HDL cholesterol in serum at 8 hr after administration; relative to a control; read-out: % HDL cholesterol increase.
Text: Additional serum lipids can be analyzed by enzymatic methods.

Row | Structure (SMILES) | change in vivo at 30 mg/kg
1 | Cc1cc2c(cc1C(F)(F)F)N(Cc1nccs1)CCC[C@@H]2N(Cc1cc(C(F)(F)F)cc(C(F)(F)F)c1)c1nnn(CCN)n1 [Example 129, (S)-[2-(2-Amino-ethyl)-2H-tetrazol-5-yl]-(3,5-bis-trifluoromethyl-benzyl)-(7-methyl-1-thiazol-2-ylmethyl-8-trifluoromethyl-2,3,4,5-tetrahydro-1H-benzo[b]azepin-5-yl)-amine] | 92%
2 | Cc1cc2c(c(C)c1C(F)(F)F)N(Cc1ccc(C(=O)O)cc1)CCC[C@@H]2N(Cc1cc(C(F)(F)F)cc(C(F)(F)F)c1)c1nnn(C)n1 [Example 202, (S)-4-{5-[(3,5-Bis-trifluoromethyl-benzyl)-(2-methyl-2H-tetrazol-5-yl)-amino]-7,9-dimethyl-8-trifluoromethyl-2,3,4,5-tetrahydro-benzo[b]azepin-1-ylmethyl}-benzoic acid] | 206%
3 | Cc1cc2c(cc1C(F)(F)F)N(C(=O)OC(C)(C)C)CCC[C@@H]2N(Cc1cc(Cl)cc(C(F)(F)F)c1)c1nnn(C)n1 [Example 185, (S)-5-[(3-Chloro-5-trifluoromethyl-benzyl)-(2-methyl-2H-tetrazol-5-yl)-amino]-7-methyl-8-trifluoromethyl-2,3,4,5-tetrahydro-benzo[b]azepine-1-carboxylic acid tert-butyl ester] | 155%
4 | Cc1cc2c(cc1C(F)(F)F)N(CC1CCCC1)CCC[C@@H]2N(Cc1cc(C(F)(F)F)cc(C(F)(F)F)c1)c1nnn(CCO)n1 [Example 27, (S)-2-{5-[(3,5-Bis-trifluoromethyl-benzyl)-(1-cyclopentylmethyl-7-methyl-8-trifluoromethyl-2,3,4,5-tetrahydro-1H-benzo[b]azepin-5-yl)-amino]-tetrazol-2-yl}-ethanol] | 128%
5 | Cc1cc2c(c(C)c1C(F)(F)F)N(C[C@H]1CC[C@H](CC(=O)O)CC1)CCC[C@@H]2N(Cc1cc(Cl)cc(C(F)(F)F)c1)c1nnn(C)n1 [Example 201, (S)-(4-{5-[(3-Chloro-5-trifluoromethyl-benzyl)-(2-methyl-2H-tetrazol-5-yl)-amino]-7,9-dimethyl-8-trifluoromethyl-2,3,4,5-tetrahydro-benzo[b]azepin-1-ylmethyl}-cyclohexyl)-acetic acid] | 147%
6 | Cc1cc2c(cc1C(F)(F)F)N(C1CCOCC1)CCC[C@@H]2N(Cc1cc(C(F)(F)F)cc(C(F)(F)F)c1)c1nnn(C)n1 [Example 139, (S)-(3,5-Bis-trifluoromethyl-benzyl)-[7-methyl-1-(tetrahydro-pyran-4-yl)-8-trifluoromethyl-2,3,4,5-tetrahydro-1H-benzo[b]azepin-5-yl]-(2-methyl-2H-tetrazol-5-yl)-amine] | 130%
7 | Cc1cc2c(cc1C(F)(F)F)N(Cc1ccc(O)c(C(=O)O)c1)CCC[C@@H]2N(Cc1cc(C(F)(F)F)cc(C(F)(F)F)c1)c1nnn(C)n1 [Example 141, (S)-5-{5-[(3,5-Bis-trifluoromethyl-benzyl)-(2-methyl-2H-tetrazol-5-yl)-amino]-7-methyl-8-trifluoromethyl-2,3,4,5-tetrahydro-benzo[b]azepin-1-ylmethyl}-2-hydroxy-benzoic acid] | 74%
8 | Cc1cc2c(c(C)c1C(F)(F)F)N(CC1CC1)CCC[C@@H]2N(Cc1cc(C(F)(F)F)cc(C(F)(F)F)c1)c1nnn(C)n1 [Example 148, (S)-(3,5-Bis-trifluoromethyl-benzyl)-(1-cyclopropylmethyl-7,9-dimethyl-8-trifluoromethyl-2,3,4,5-tetrahydro-1H-benzo[b]azepin-5-yl)-(2-methyl-2H-tetrazol-5-yl)-amine] | 224%
9 | Cc1cc2c(c(C)c1C(F)(F)F)N(C[C@H]1CC[C@H](CC(=O)O)CC1)CCC[C@@H]2N(Cc1cc(C(F)(F)F)cc(C(F)(F)F)c1)c1nnn(C)n1 [Example 153, (S)-(4-{5-[(3,5-Bis-trifluoromethyl-benzyl)-(2-methyl-2H-tetrazol-5-yl)-amino]-7,9-dimethyl-8-trifluoromethyl-2,3,4,5-tetrahydro-benzo[b]azepin-1-ylmethyl}-cyclohexyl)-acetic acid] | 165%
10 | Cn1nnc(N(Cc2cc(C(F)(F)F)cc(C(F)(F)F)c2)[C@H]2CCCN(CC3CCCC3)c3cc4c(cc32)OC(F)(F)O4)n1 [Example 178, (S)-(3,5-Bis-trifluoromethyl-benzyl)-(5-cyclopentylmethyl-2,2-difluoro-6,7,8,9-tetrahydro-5H-1,3-dioxa-5-aza-cyclohepta[f]inden-9-yl)-(2-methyl-2H-tetrazol-5-yl)-amine] | 128%
11 | Cc1cc2c(cc1C(F)(F)F)N(CCO)CCC[C@@H]2N(Cc1cc(C(F)(F)F)cc(C(F)(F)F)c1)c1nnn(C)n1 [Example 33, (S)-2-{5-[(3,5-Bis-trifluoromethyl-benzyl)-(2-methyl-2H-tetrazol-5-yl)-amino]-7-methyl-8-trifluoromethyl-2,3,4,5-tetrahydro-benzo[b]azepin-1-yl}-ethanol] | 354%
12 | Cc1cc2c(cc1C(F)(F)F)N(C(=O)OC(C)(C)C)CCC[C@@H]2N(Cc1cc(C(F)(F)F)cc(C(F)(F)F)c1)c1nnn(C)n1 [Example 17, (S)-5-[(3,5-Bis-trifluoromethyl-benzyl)-(2-methyl-2H-tetrazol-5-yl)-amino]-7-methyl-8-trifluoromethyl-2,3,4,5-tetrahydro-benzo[b]azepine-1-carboxylic acid tert-butyl ester] | 73%
13 | Cc1cc2c(c(C)c1C(F)(F)F)N(Cc1ccncc1)CCC[C@@H]2N(Cc1cc(C(F)(F)F)cc(C(F)(F)F)c1)c1nnn(C)n1 [Example 151, (S)-(3,5-Bis-trifluoromethyl-benzyl)-(7,9-dimethyl-1-pyridin-4-ylmethyl-8-trifluoromethyl-2,3,4,5-tetrahydro-1H-benzo[b]azepin-5-yl)-(2-methyl-2H-tetrazol-5-yl)-amine] | 165%
14 | Cc1cc2c(cc1C(F)(F)F)N(CCC(C)(C)CC(=O)O)CCC[C@@H]2N(Cc1cc(C(F)(F)F)cc(C(F)(F)F)c1)c1nnn(C)n1 [Example 32, (S)-5-{5-[(3,5-Bis-trifluoromethyl-benzyl)-(2-methyl-2H-tetrazol-5-yl)-amino]-7-methyl-8-trifluoromethyl-2,3,4,5-tetrahydro-benzo[b]azepin-1-yl}-3,3-dimethyl-pentanoic acid] | 128%
15 | CCN1CCC[C@H](N(Cc2cc(C(F)(F)F)cc(C(F)(F)F)c2)c2nnn(C)n2)c2cc(C)c(C(F)(F)F)cc21 [Example 30, (S)-(3,5-Bis-trifluoromethyl-benzyl)-(1-ethyl-7-methyl-8-trifluoromethyl-2,3,4,5-tetrahydro-1H-benzo[b]azepin-5-yl)-(2-methyl-2H-tetrazol-5-yl)-amine] | 54%
16 | Cn1nnc(N(Cc2cc(C(F)(F)F)cc(C(F)(F)F)c2)[C@H]2CCCN(CC3CCCC3)c3cc4c(cc32)CCCC4)n1 [Example 77, (3,5-Bis-trifluoromethyl-benzyl)-(1-cyclopentylmethyl-2,3,4,5,7,8,9,10-octahydro-1H-naphtho[2,3-b]azepin-5-yl)-(2-methyl-2H-tetrazol-5-yl)-amine] | 229%
17 | Cc1cc2c(cc1C(F)(F)F)N(Cc1ccncc1)CCC[C@@H]2N(Cc1cc(Cl)cc(C(F)(F)F)c1)c1nnn(C)n1 [Example 191, (S)-(3-Chloro-5-trifluoromethyl-benzyl)-(7-methyl-1-pyridin-4-ylmethyl-8-trifluoromethyl-2,3,4,5-tetrahydro-1H-benzo[b]azepin-5-yl)-(2-methyl-2H-tetrazol-5-yl)-amine] | 91%
18 | Cc1cc2c(cc1C(F)(F)F)N(Cc1cncc(C(=O)O)c1)CCC[C@@H]2N(Cc1cc(C(F)(F)F)cc(C(F)(F)F)c1)c1nnn(C)n1 [Example 142, (S)-5-{5-[(3,5-Bis-trifluoromethyl-benzyl)-(2-methyl-2H-tetrazol-5-yl)-amino]-7-methyl-8-trifluoromethyl-2,3,4,5-tetrahydro-benzo[b]azepin-1-ylmethyl}-nicotinic acid hydrochloride] | 90%
19 | CCC(CC)OC(=O)N1CCC[C@H](N(Cc2cc(C(F)(F)F)cc(C(F)(F)F)c2)c2nnn(C)n2)c2cc(C)c(C(F)(F)F)cc21 [Example 18, (S)-5-[(3,5-Bis-trifluoromethyl-benzyl)-(2-methyl-2H-tetrazol-5-yl)-amino]-7-methyl-8-trifluoromethyl-2,3,4,5-tetrahydro-benzo[b]azepine-1-carboxylic acid 1-ethyl-propyl ester] | 105%
20 | Cc1c2c(cc3c1N(Cc1ccc(C(=O)O)cc1)CCC[C@@H]3N(Cc1cc(C(F)(F)F)cc(C(F)(F)F)c1)c1nnn(C)n1)COC2 [Example 166, (S)-4-{9-[(3,5-Bis-trifluoromethyl-benzyl)-(2-methyl-2H-tetrazol-5-yl)-amino]-4-methyl-1,3,6,7,8,9-hexahydro-2-oxa-5-aza-cyclohepta[f]inden-5-ylmethyl}-benzoic acid] | 102%
21 | Cc1cc2c(c(C)c1C(F)(F)F)N(CCC(C)(C)CC(=O)O)CCC[C@@H]2N(Cc1cc(C(F)(F)F)cc(C(F)(F)F)c1)c1nnn(C)n1 [Example 154, (S)-5-{5-[(3,5-Bis-trifluoromethyl-benzyl)-(2-methyl-2H-tetrazol-5-yl)-amino]-7,9-dimethyl-8-trifluoromethyl-2,3,4,5-tetrahydro-benzo[b]azepin-1-yl}-3,3-dimethyl-pentanoic acid] | 99%
22 | Cc1cc2c(cc1C(F)(F)F)N(C(=O)OC(C)C)CCC[C@@H]2N(Cc1cc(C(F)(F)F)cc(C(F)(F)F)c1)c1nnn(C)n1 [Example 16, (S)-5-[(3,5-Bis-trifluoromethyl-benzyl)-(2-methyl-2H-tetrazol-5-yl)-amino]-7-methyl-8-trifluoromethyl-2,3,4,5-tetrahydro-benzo[b]azepine-1-carboxylic acid isopropyl ester] | 82%
23 | Cc1cc2c(cc1C(F)(F)F)N(CC1CCC(CC(=O)O)CC1)CCCC2N(Cc1cc(C(F)(F)F)cc(C(F)(F)F)c1)c1nnn(C)n1 (centres unmarked) [Example 31, (4-{5-[(3,5-Bis-trifluoromethyl-benzyl)-(2-methyl-2H-tetrazol-5-yl)-amino]-7-methyl-8-trifluoromethyl-2,3,4,5-tetrahydro-benzo[b]azepin-1-ylmethyl}-cyclohexyl)-acetic acid] | 114%
